The values below come from US20180273528A1 (LES LABORATOIRES SERVIER, priority 2015, published 2018).

One may read the IC50 as the concentration that inhibits the measured activity by half.

Assay [1] has as its target T1, CLK1 (Homo sapiens, UniProt P49759).
T1 construct: full-length human kinases from Carna Biosciences; purchased Carna Biosciences 04-126
Nature of the assay: Kinase TR-FRET assay, CLK1. Type of assay: biochemical. Conditions: full-length human kinase, 10 μM ATP. The method, then: Inhibition of the enzymatic activity of human kinases was evaluated in a Time-Resolved Fluorescence Resonance Energy Transfer (TR-FRET) assay in 384-well reaction plates. […] Test compounds of the invention were added in reaction buffer at a range of concentrations from 0.1 nM to 30 μM. Following addition of EDTA (Sigma E7889, 10 mM) to stop the reaction, Europium-labelled mouse monoclonal antibody recognizing phospho-Thr232 in MBP (Perkin Elmer TRF0201, 1 nM) was added.

The target in assay [2] is T2, DYRK1A (Homo sapiens, UniProt Q13627). The assay is described as follows: Kinase TR-FRET assay, DYRK1A. It is filed as biochemical. Details: full-length, wild-type human DYRK1A (NM_001396) with an HA tag; expressed in transfected cells; host or cells: human U2-OS osteosarcoma cells, transient transfection of a pcDNA3.1 plasmid. Conditions: full-length human kinase, 10 μM ATP. The procedure, abridged: (§1)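 Compounds tested at 0.1 nM to 30 μM in reaction buffer; reaction stopped with 10 mM EDTA. Phosphorylated MBP detected with 1 nM Europium-labelled anti-phospho-Thr232 antibody by TR-FRET.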
In general terms: TR-FRET usually uses a lanthanide donor and a delayed reading to cut background.

The target of assay [3] is T3, CDK9 (Homo sapiens, UniProt P50750).
T3 construct: full-length human kinases from Carna Biosciences; purchased Carna Biosciences 04-110
Nature of the assay: Kinase TR-FRET assay, CDK9. Type of assay: biochemical. The note with it: full-length human kinase, 10 μM ATP. The procedure, abridged: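 Full-length human CDK9 (0.9 ng/μl) incubated 100 min at room temperature with 10 μM ATP, 100 nM ULight-MBP peptide and compound (0.1 nM–30 μM) in 50 mM HEPES pH 7.4, 1 mM EGTA, 10 mM MgCl2, 2 mM DTT, 0.01% Tween20. Stopped with 10 mM EDTA, then 1 nM Eu-anti-phospho-Thr232 MBP antibody added for 1 h. TR-FRET read at 665/620 nm with 340 nm excitation.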

In assay [4] the target is T4, His-TEV-DYRK1A Kinase domain (aa127-485) (Homo sapiens, UniProt Q13627).
T4 construct: His-TEV-DYRK1A Kinase domain (aa127-485); His tag (N); TEV protease cleavage site (N)
The assay is described as follows: Kinase ADP assay (ADP Hunter), DYRK1A kinase domain. It is filed as biochemical. Conditions: 20 μM ATP. Put shortly: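 Readout is ADP Hunter fluorescence at 590 nm, developed 20 min at 30 °C after the kinase step. That step ran 10 min at 30 °C in Hepes pH 7.4 (10 mM MgCl2, 1 mM EGTA, 0.02% Tween20) containing 20 μM ATP, 40 μM peptide and 20 nM enzyme plus compound.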

Assay [5] addresses T5, DYRK1B (Homo sapiens, UniProt Q9Y463).
T5 construct: full-length human kinases from Carna Biosciences; purchased Carna Biosciences 04-131
The assay is described as follows: Kinase TR-FRET assay, DYRK1B. Type of assay: biochemical. The note with it: full-length human kinase, 10 μM ATP. The procedure, abridged:
as §1

The target in assay [6] is T2, DYRK1A. Nature of the assay: Cellular DYRK1 autophosphorylation assay in U2-OS cells. Type of assay: cell-based. Also noted: full-length, wild-type human DYRK1A (NM_001396) with an HA tag; expressed in transfected cells; host or cells: human U2-OS osteosarcoma cells, transient transfection of a pcDNA3.1 plasmid. The note with it: U2-OS cells transfected with HA-tagged human DYRK1A, 5 hours exposure; read-out: IC50 (μM) P-Ser520-Dyrk1A -Cell assay. Put shortly:
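IC50 derived from dose-response curves of phospho-Ser520-DYRK1A (blots normalised to total DYRK1A), quantified by either immunoblotting with chemiluminescence or Mesoscale electrochemiluminescent ELISA. Compounds applied to U2-OS cells across several concentrations for 5 hours.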

T5 sequence (Q9Y463 whole entry): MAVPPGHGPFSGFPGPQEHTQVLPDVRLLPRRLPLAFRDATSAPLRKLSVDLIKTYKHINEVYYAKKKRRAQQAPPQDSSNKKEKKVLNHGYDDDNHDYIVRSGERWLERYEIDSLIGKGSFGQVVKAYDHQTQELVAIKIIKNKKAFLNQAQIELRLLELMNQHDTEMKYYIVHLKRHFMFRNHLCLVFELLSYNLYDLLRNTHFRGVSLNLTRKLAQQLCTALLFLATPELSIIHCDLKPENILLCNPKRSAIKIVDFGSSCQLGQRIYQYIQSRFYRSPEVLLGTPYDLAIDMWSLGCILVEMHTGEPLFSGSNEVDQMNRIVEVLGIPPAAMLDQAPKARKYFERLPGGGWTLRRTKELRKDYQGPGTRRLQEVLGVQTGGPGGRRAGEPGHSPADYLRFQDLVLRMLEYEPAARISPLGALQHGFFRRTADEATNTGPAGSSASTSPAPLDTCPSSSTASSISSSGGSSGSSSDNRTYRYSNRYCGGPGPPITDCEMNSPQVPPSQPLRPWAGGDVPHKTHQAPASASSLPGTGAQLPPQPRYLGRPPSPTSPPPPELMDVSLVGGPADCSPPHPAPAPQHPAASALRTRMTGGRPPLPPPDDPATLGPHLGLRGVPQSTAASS
T1 sequence (P49759 1-526 isoform P49759-3): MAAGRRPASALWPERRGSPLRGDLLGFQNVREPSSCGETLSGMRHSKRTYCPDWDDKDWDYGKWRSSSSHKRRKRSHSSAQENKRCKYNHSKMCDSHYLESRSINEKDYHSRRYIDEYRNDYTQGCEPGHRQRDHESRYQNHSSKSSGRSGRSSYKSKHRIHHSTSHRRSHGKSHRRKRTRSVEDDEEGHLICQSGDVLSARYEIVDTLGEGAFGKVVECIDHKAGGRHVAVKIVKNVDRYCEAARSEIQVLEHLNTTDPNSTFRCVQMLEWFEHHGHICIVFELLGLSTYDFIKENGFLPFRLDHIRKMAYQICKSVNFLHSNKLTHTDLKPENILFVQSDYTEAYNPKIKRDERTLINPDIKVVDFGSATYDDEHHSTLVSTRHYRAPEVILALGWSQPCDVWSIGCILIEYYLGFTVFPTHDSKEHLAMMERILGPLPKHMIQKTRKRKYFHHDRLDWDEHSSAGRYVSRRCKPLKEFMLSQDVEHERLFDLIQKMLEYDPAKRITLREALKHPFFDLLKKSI
T3 sequence (P50750 whole entry): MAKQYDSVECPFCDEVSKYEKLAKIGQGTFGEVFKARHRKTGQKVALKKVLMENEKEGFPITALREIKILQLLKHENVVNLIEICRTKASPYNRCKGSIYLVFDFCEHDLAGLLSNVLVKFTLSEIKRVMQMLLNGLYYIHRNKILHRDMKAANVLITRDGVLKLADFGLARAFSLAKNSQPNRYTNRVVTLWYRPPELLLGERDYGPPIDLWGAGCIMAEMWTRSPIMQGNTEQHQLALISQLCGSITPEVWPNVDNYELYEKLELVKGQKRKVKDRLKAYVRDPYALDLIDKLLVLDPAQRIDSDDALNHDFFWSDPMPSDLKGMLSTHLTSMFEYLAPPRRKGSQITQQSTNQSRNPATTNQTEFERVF
T3 sequence (O60563 whole entry partner): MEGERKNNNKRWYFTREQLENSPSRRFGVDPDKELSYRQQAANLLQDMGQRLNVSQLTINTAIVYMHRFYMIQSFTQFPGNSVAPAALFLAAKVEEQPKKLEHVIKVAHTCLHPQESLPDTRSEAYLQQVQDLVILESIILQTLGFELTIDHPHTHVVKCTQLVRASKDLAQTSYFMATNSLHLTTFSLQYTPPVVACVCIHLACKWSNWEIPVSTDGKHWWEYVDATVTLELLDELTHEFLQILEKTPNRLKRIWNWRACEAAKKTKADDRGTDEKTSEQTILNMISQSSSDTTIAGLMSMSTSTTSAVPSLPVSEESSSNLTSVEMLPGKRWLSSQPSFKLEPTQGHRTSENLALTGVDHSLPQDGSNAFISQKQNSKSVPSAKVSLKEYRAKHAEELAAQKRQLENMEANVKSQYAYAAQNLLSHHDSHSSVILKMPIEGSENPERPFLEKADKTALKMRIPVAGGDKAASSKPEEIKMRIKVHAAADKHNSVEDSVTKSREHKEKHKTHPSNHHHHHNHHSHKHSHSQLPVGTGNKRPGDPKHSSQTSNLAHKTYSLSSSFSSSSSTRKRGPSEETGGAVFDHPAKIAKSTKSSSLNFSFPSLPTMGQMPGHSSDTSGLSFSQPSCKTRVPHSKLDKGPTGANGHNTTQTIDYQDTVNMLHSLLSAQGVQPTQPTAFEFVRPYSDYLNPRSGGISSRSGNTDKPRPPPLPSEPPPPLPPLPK

For the compound `Cc1nc2ccc(-c3cc(N)nc(N)c3)nc2n1CC1CC1(Cl)Cl` (stereo not drawn) [Example 74, 4-{3-[(2,2-dichlorocyclopropyl)methyl]-2-methyl-3H-imidazo[4,5-b]pyridin-5-yl}pyridine-2,6-diamine], the IC50 in assay [1] is 0.021 µM; in assay [2] it was 0.006 µM; in assay [3], 0.476 µM; in assay [4], 0.014 µM; in assay [5] it was 0.01 µM; in assay [6] it was 0.092 µM.
Take `Cc1nc2ccc(-c3cc(N)nc(N)c3)nc2n1CCC(C)C` [Example 75, 4-[2-methyl-3-(3-methylbutyl)-3H-imidazo[4,5-b]pyridin-5-yl]pyridine-2,6-diamine]: the IC50 in assay [1] stood at 0.019 µM; in assay [2], 0.003 µM; in assay [3], 0.843 µM; in assay [4], 0.012 µM; in assay [5] it was 0.006 µM; in assay [6] it was 0.035 µM.
Turning to `Cc1nc2ccc(-c3cc(N)nc(N)c3)nc2n1CC1CCCC1` [Example 89, 4-[3-(cyclopentylmethyl)-2-methyl-3H-imidazo[4,5-b]pyridin-5-yl]pyridine-2,6-diamine], the concentration for half-maximal inhibition (IC50) worked out at 0.024 µM in assay [1]; 0.004 µM in assay [2]; 1.46 µM in assay [3]; 0.014 µM in assay [4]; 0.009 µM in assay [5]; 0.068 µM in assay [6].
Consider `Cc1nc2ccc(-c3cc(N)nc(N)c3)nc2n1CCc1cccc(C(F)(F)F)c1` [Example 91, 4-(2-methyl-3-{2-[3-(trifluoromethyl)phenyl]ethyl}-3H-imidazo[4,5-b]pyridin-5-yl)pyridine-2,6-diamine], for which the IC50 in assay [1] turned out to be 0.016 µM; in assay [2], 0.004 µM; in assay [3], 2.92 µM; in assay [4], 0.013 µM; in assay [5], 0.008 µM; in assay [6], 0.062 µM.
Regarding `Cc1nc2ccc(-c3cc(N)nc(N)c3)nc2n1CCC1CCCC1` [Example 92, 4-[3-(2-cyclopentylethyl)-2-methyl-3H-imidazo[4,5-b]pyridin-5-yl]pyridine-2,6-diamine], the IC50 was found to be 0.017 µM in assay [1]; 0.002 µM in assay [2]; 0.564 µM in assay [3]; 0.006 µM in assay [4]; 0.007 µM in assay [5]; 0.058 µM in assay [6].
Consider `CCCCCCn1c(C)nc2ccc(-c3cc(N)nc(N)c3)nc21` [Example 94, 4-(3-hexyl-2-methyl-3H-imidazo[4,5-b]pyridin-5-yl)pyridine-2,6-diamine], for which the IC50 in assay [1] came out at 0.016 µM; in assay [2], 0.003 µM; in assay [3] it was 1.08 µM; in assay [4], 0.005 µM; in assay [5] it was 0.007 µM; in assay [6], 0.017 µM.
With `COC1CCCCC1CCn1c(C)nc2ccc(-c3cc(N)nc(N)c3)nc21` (stereo not drawn) [Example 95, 4-{3-[2-(2-methoxycyclohexyl)ethyl]-2-methyl-3H-imidazo[4,5-b]pyridin-5-yl}pyridine-2,6-diamine], the IC50 was found to be 0.029 µM in assay [1]; 0.003 µM in assay [2]; 1.8 µM in assay [3]; 0.012 µM in assay [4]; 0.011 µM in assay [5]; 0.021 µM in assay [6].
`Cc1nc2ccc(-c3cc(N)nc(N)c3)nc2n1CCc1ccc(F)cc1` [Example 96, 4-{3-[2-(4-fluorophenyl)ethyl]-2-methyl-3H-imidazo[4,5-b]pyridin-5-yl}pyridine-2,6-diamine]: the concentration for half-maximal inhibition (IC50) in assay [1] came to 0.02 µM; in assay [2] it was 0.004 µM; in assay [3] it was 3.09 µM; in assay [4], 0.011 µM; in assay [5], 0.01 µM; in assay [6], 0.075 µM.
`Cc1nc2ccc(-c3cc(N)nc(N)c3)nc2n1CC(F)F` [Example 115, 4-[3-(2,2-difluoroethyl)-2-methyl-3H-imidazo[4,5-b]pyridin-5-yl]pyridine-2,6-diamine]: the half-inhibitory concentration (IC50) was 0.028 µM in assay [1]; 0.003 µM in assay [2]; 5.69 µM in assay [3]; 0.013 µM in assay [4]; 0.006 µM in assay [5]; 0.034 µM in assay [6].
For the compound `CCCCc1nc2ccc(-c3cc(N)nc(N)c3)nc2n1CCCC` [Example 144, 4-(2,3-dibutyl-3H-imidazo[4,5-b]pyridin-5-yl)pyridine-2,6-diamine], the IC50 was 0.238 µM in assay [1]; 0.008 µM in assay [2]; more than 3 µM in assay [3]; 0.016 µM in assay [4]; 0.012 µM in assay [5]; 0.128 µM in assay [6].
In the case of `CCCCn1c(C)nc2ccc(-c3cc(N)nc(N)c3)nc21` [Example 148, 4-(3-butyl-2-methyl-3H-imidazo[4,5-b]pyridin-5-yl)pyridine-2,6-diamine], the IC50 was found to be 0.016 µM in assay [1]; 0.002 µM in assay [2]; 1.24 µM in assay [3]; 0.007 µM in assay [4]; 0.006 µM in assay [5]; 0.1 µM in assay [6].
On to `COCCCCn1c(C)nc2ccc(-c3cc(N)nc(N)c3)nc21` [Example 151, 4-[3-(4-methoxybutyl)-2-methyl-3H-imidazo[4,5-b]pyridin-5-yl]pyridine-2,6-diamine], for which the half-inhibitory concentration (IC50) in assay [1] was 0.019 µM; in assay [2], 0.004 µM; in assay [3], 2.87 µM; in assay [4], 0.013 µM; in assay [5], 0.008 µM; in assay [6] it was 0.17 µM.
Take `Cc1nc2ccc(-c3cc(N)nc(N)c3)nc2n1CCOc1ccccc1` [Example 153, 4-[2-methyl-3-(2-phenoxyethyl)-3H-imidazo[4,5-b]pyridin-5-yl]pyridine-2,6-diamine]: the IC50 in assay [1] stood at 0.016 µM; in assay [2], 0.001 µM; in assay [3], 1.02 µM; in assay [4], 0.01 µM; in assay [5], 0.003 µM; in assay [6], 0.035 µM.
Take `CCCCn1c(CC)nc2ccc(-c3cc(N)nc(N)c3)nc21` [Example 157, 4-(3-butyl-2-ethyl-3H-imidazo[4,5-b]pyridin-5-yl)pyridine-2,6-diamine]: the IC50 in assay [1] is 0.058 µM; in assay [2], 0.011 µM; in assay [3], more than 10 µM; in assay [4] it was 0.021 µM; in assay [5], 0.003 µM; in assay [6], 0.153 µM.
Turning to `Cc1nc2ccc(-c3cc(N)nc(N)c3)nc2n1C[C@H](C)Oc1cccc(Br)n1` [Example 180], the IC50 in assay [1] turned out to be 0.016 µM; in assay [2] it was 0.005 µM; in assay [3], 0.467 µM; in assay [4] it was 0.013 µM; in assay [5] it was 0.01 µM; in assay [6] it was 0.044 µM.
As to `Cc1nc2ccc(-c3cc(N)nc(N)c3)nc2n1CCOc1cccc(F)c1` [Example 199, 4-{3-[2-(3-fluorophenoxy)ethyl]-2-methyl-3H-imidazo[4,5-b]pyridin-5-yl}pyridine-2,6-diamine], the half-maximal inhibitory concentration (IC50) in assay [1] was determined as 0.016 µM; in assay [2] it was 0.003 µM; in assay [3], 1.1 µM; in assay [4], 0.012 µM; in assay [5], 0.007 µM; in assay [6], 0.053 µM.
For the compound `Cc1nc2ccc(-c3cc(N)nc(N)c3)nc2n1CCOc1cccc(Cl)c1` [Example 200], the IC50 worked out at 0.02 µM in assay [1]; 0.005 µM in assay [2]; 1.52 µM in assay [3]; 0.018 µM in assay [4]; 0.01 µM in assay [5]; 0.069 µM in assay [6].
